Source: patent publication US20090018134A1, “Compounds - 945” (AstraZeneca AB, priority 2007, published 2009)
pIC50: −log10 of the molar value.

Target: T1, mTOR (Homo sapiens, UniProt P42345)
T1 construct: FLAG; made in house
Assay: In Vitro mTOR Kinase Assay (Echo), Test (a)(ii)
Type: biochemical
Details: table of enzyme assay Test (a)(ii); read-out: Test (a)(ii) IC50
Outline: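 FLAG-tagged truncated mTOR (residues 1362-2549), expressed in HEK293 and purified via the FLAG tag, phosphorylated a biotinylated peptide over 2 hours at room temperature. EDTA stopped the reaction. Phospho-T389 was detected overnight by AlphaScreen using the p70 S6K T389 antibody with Protein A/streptavidin beads; IC50 reported.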

T1 sequence (P42345 1362-2549): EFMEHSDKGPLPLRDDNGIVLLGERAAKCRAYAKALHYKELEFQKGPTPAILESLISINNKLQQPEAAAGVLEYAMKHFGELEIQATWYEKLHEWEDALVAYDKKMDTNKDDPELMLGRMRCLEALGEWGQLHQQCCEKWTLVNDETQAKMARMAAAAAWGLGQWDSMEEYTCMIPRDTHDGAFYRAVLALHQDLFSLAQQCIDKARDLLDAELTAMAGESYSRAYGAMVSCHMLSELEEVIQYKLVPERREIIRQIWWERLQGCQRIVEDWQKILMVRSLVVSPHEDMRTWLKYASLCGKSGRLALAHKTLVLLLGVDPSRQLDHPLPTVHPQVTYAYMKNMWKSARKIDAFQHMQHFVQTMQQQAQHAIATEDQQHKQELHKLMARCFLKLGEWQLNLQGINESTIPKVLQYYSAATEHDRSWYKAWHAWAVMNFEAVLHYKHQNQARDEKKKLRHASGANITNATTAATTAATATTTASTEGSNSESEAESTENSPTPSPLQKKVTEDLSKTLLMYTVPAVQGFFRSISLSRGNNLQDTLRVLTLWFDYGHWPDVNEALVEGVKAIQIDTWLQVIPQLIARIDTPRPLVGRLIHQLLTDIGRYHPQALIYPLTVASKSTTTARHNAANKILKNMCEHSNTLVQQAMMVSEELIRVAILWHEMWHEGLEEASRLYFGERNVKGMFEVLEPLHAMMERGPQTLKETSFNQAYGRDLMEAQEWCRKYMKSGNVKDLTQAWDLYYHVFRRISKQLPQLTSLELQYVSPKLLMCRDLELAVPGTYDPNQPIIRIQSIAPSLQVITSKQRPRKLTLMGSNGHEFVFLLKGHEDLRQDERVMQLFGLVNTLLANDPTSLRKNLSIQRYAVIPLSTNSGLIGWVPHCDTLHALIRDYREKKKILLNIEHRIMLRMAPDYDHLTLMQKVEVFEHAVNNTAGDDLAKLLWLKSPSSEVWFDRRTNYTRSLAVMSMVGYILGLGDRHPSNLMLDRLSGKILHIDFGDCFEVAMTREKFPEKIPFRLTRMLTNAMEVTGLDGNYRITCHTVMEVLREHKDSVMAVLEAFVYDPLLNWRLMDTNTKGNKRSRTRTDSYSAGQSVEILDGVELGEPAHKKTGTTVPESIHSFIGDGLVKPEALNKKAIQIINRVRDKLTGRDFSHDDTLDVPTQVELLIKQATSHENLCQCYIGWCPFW

| SMILES | pIC50 |
| --- | --- |
| CCNC(=O)Nc1ccc(-c2nc(N3CCOC[C@@H]3C)cc(C3(S(=O)(=O)c4ccccc4)CCOCC3)n2)cc1 [Example 36cz, 3-[4-[4-[4-(benzenesulfonyl)oxan-4-yl]-6-[(3S)-3-methylmorpholin-4-yl]pyrimidin-2-yl]phenyl]-1-ethylurea] | 7.42 |
| CNC(=O)Nc1ccc(-c2nc(N3CCOC[C@@H]3C)cc(C3(S(=O)(=O)C4CC4)CCC3)n2)cc1 [Example 36d, 1-[4-[4-(1-cyclopropylsulfonylcyclobutyl)-6-[(3S)-3-methylmorpholin-4-yl]pyrimidin-2-yl]phenyl]-3-methylurea] | 8.50 |
| C[C@H]1COCCN1c1cc(C2(S(=O)(=O)c3ccccc3)CCOCC2)nc(-c2ccc(NC(=O)NC3CC3)cc2)n1 [Example 36da, 1-[4-[4-[4-(benzenesulfonyl)oxan-4-yl]-6-[(3S)-3-methylmorpholin-4-yl]pyrimidin-2-yl]phenyl]-3-cyclopropylurea] | 7.48 |
| C[C@H]1COCCN1c1cc(C2(S(=O)(=O)c3ccccc3)CCOCC2)nc(-c2ccc(NC(=O)NCCO)cc2)n1 [Example 36db, 1-[4-[4-[4-(benzenesulfonyl)oxan-4-yl]-6-[(3S)-3-methylmorpholin-4-yl]pyrimidin-2-yl]phenyl]-3-(2-hydroxyethyl)urea] | 7.68 |
| O=C(Nc1ccc(-c2nc(N3CCOCC3)cc(C3(S(=O)(=O)c4ccccc4)CC3)n2)cc1)NC1CC1 [Example 36dc, 1-[4-[4-[1-(benzenesulfonyl)cyclopropyl]-6-morpholin-4-ylpyrimidin-2-yl]phenyl]-3-cyclopropylurea] | 8.00 |
| CCNC(=O)Nc1ccc(-c2nc(N3CCOCC3)cc(C3(S(=O)(=O)c4ccccc4)CC3)n2)cc1 [Example 36dd, 3-[4-[4-[1-(benzenesulfonyl)cyclopropyl]-6-morpholin-4-ylpyrimidin-2-yl]phenyl]-1-ethylurea] | 8.54 |
| O=C(NCCO)Nc1ccc(-c2nc(N3CCOCC3)cc(C3(S(=O)(=O)c4ccccc4)CC3)n2)cc1 [Example 36de, 1-[4-[4-[1-(benzenesulfonyl)cyclopropyl]-6-morpholin-4-ylpyrimidin-2-yl]phenyl]-3-(2-hydroxyethyl)urea] | 8.41 |
| CNC(=O)Nc1ccc(-c2nc(N3CCOCC3)cc(C3(S(=O)(=O)c4ccccc4)CC3)n2)cc1 [Example 36df, 3-[4-[4-[1-(benzenesulfonyl)cyclopropyl]-6-morpholin-4-ylpyrimidin-2-yl]phenyl]-1-methylurea] | 8.15 |
| O=C(NCCCO)Nc1ccc(-c2nc(N3CCOCC3)cc(C3(S(=O)(=O)c4ccccc4)CC3)n2)cc1 [Example 36dg, 1-[4-[4-[1-(benzenesulfonyl)cyclopropyl]-6-morpholin-4-ylpyrimidin-2-yl]phenyl]-3-(3-hydroxypropyl)urea] | 7.79 |
| N#CCCNC(=O)Nc1ccc(-c2nc(N3CCOCC3)cc(C3(S(=O)(=O)c4ccccc4)CC3)n2)cc1 [Example 36dh, 1-[4-[4-[1-(benzenesulfonyl)cyclopropyl]-6-morpholin-4-ylpyrimidin-2-yl]phenyl]-3-(2-cyanoethyl)urea] | 8.47 |
| O=C(Nc1ccc(-c2nc(N3CCOCC3)cc(C3(S(=O)(=O)c4ccccc4)CC3)n2)cc1)Nc1ncns1 [Example 36di, 1-[4-[4-[1-(benzenesulfonyl)cyclopropyl]-6-morpholin-4-ylpyrimidin-2-yl]phenyl]-3-(1,2,4-thiadiazol-5-yl)urea] | 8.03 |
| Cn1cc(NC(=O)Nc2ccc(-c3nc(N4CCOCC4)cc(C4(S(=O)(=O)c5ccccc5)CC4)n3)cc2)cn1 [Example 36dj, 3-[4-[4-[1-(benzenesulfonyl)cyclopropyl]-6-morpholin-4-ylpyrimidin-2-yl]phenyl]-1-(1-methylpyrazol-4-yl)urea] | 8.05 |
| Cc1csc(S(=O)(=O)C2(c3cc(N4CCOC[C@@H]4C)nc(-c4ccc(NC(=O)NC5CC5)cc4)n3)CCCC2)n1 [Example 36dk, 3-cyclopropyl-1-[4-[4-[(3S)-3-methylmorpholin-4-yl]-6-[1-[(4-methyl-1,3-thiazol-2-yl)sulfonyl)cyclopentyl]pyrimidin-2-yl]phenyl]urea] | 8.04 |
| Cc1csc(S(=O)(=O)C2(c3cc(N4CCOC[C@@H]4C)nc(-c4ccc(NC(=O)NCCO)cc4)n3)CCCC2)n1 [Example 36dl, 3-(2-hydroxyethyl)-1-[4-[4-[(3S)-3-methylmorpholin-4-yl]-6-[1-[(4-methyl-1,3-thiazol-2-yl)sulfonyl]cyclopentyl]pyrimidin-2-yl]phenyl]urea] | 8.40 |
| Cc1csc(S(=O)(=O)C2(c3cc(N4CCOC[C@@H]4C)nc(-c4ccc(NC(=O)NCCC#N)cc4)n3)CCCC2)n1 [Example 36dm, 3-(2-cyanoethyl)-1-[4-[4-[(3S)-3-methylmorpholin-4-yl]-6-[1-[(4-methyl-1,3-thiazol-2-yl)sulfonyl]cyclopentyl]pyrimidin-2-yl]phenyl]urea] | 7.53 |
| Cc1csc(S(=O)(=O)C2(c3cc(N4CCOC[C@@H]4C)nc(-c4ccc(NC(=O)NCCCO)cc4)n3)CCCC2)n1 [Example 36dn, 3-(3-hydroxypropyl)-1-[4-[4-[(3S)-3-methylmorpholin-4-yl]-6-[1-[(4-methyl-1,3-thiazol-2-yl)sulfonyl]cyclopentyl]pyrimidin-2-yl]phenyl]urea] | 7.86 |
| C[C@H]1COCCN1c1cc(C2(S(=O)(=O)c3ccccc3)CC2)nc(-c2ccc(NC(=O)N3CCC(O)C3)cc2)n1 (stereo partly drawn) [Example 36do, N-[4-[4-[1-(benzenesulfonyl)cyclopropyl]-6-[(3S)-3-methylmorpholin-4-yl]pyrimidin-2-yl]phenyl]-3-hydroxypyrrolidine-1-carboxamide] | 7.56 |

Now from value to compound:

| pIC50 | SMILES |
| --- | --- |
| 7.97 | C[C@H]1COCCN1c1cc(C2(S(=O)(=O)c3ccccc3)CC2)nc(-c2ccc(NC(=O)NCC(=O)O)cc2)n1 [Example 36dp, 2-[[4-[4-[1-(benzenesulfonyl)cyclopropyl]-6-[(3S)-3-methylmorpholin-4-yl]pyrimidin-2-yl]phenyl]carbamoylamino]aceticacid] |
| 7.61 | C[C@H]1COCCN1c1cc(C2(S(=O)(=O)c3ccccc3)CC2)nc(-c2ccc(NC(=O)NCC(=O)N(C)C)cc2)n1 [Example 36dq, 2-[[4-[4-[1-(benzenesulfonyl)cyclopropyl]-6-[(3S)-3-methylmorpholin-4-yl]pyrimidin-2-yl]phenyl]carbamoylamino]-N,N-dimethylacetamide] |
| 6.53 | C[C@H]1COCCN1c1cc(C2(S(=O)(=O)c3ccccc3)CC2)nc(-c2ccc(NC(=O)N(C)C3CC3)cc2)n1 [Example 36dr, 3-[4-[4-[1-(benzenesulfonyl)cyclopropyl]-6-[(3S)-3-methylmorpholin-4-yl]pyrimidin-2-yl]phenyl]-1-cyclopropyl-1-methylurea] |
| 9.01 | C[C@H]1COCCN1c1cc(C2(S(=O)(=O)c3ccccc3)CC2)nc(-c2ccc(NC(=O)NCCF)cc2)n1 [Example 36ds, 1-[4-[4-[1-(benzenesulfonyl)cyclopropyl]-6-[(3S)-3-methylmorpholin-4-yl]pyrimidin-2-yl]phenyl]-3-(2-fluoroethyl)urea] |
| 9.43 | C[C@H]1COCCN1c1cc(C2(S(=O)(=O)c3ccccc3)CCC2)nc(-c2ccc(NC(=O)NCCC#N)cc2)n1 [Example 36dt, 1-[4-[4-[1-(benzenesulfonyl)cyclobutyl]-6-[(3S)-3-methylmorpholin-4-yl]pyrimidin-2-yl]phenyl]-3-(2-cyanoethyl)urea] |
| 7.82 | C[C@H]1COCCN1c1cc(C2(S(=O)(=O)c3ccccc3)CCC2)nc(-c2ccc(NC(=O)NCc3ncc[nH]3)cc2)n1 [Example 36du, 1-[4-[4-[1-(benzenesulfonyl)cyclobutyl]-6-[(3S)-3-methylmorpholin-4-yl]pyrimidin-2-yl]phenyl]-3-(1H-imidazol-2-ylmethyl)urea] |
| 8.37 | C[C@H]1COCCN1c1cc(C2(S(=O)(=O)c3ccccc3)CC2)nc(-c2ccc(NC(=O)Nc3ccn(C)n3)cc2)n1 [Example 36dv, 1-[4-[4-[1-(benzenesulfonyl)cyclopropyl]-6-[(3S)-3-methylmorpholin-4-yl]pyrimidin-2-yl]phenyl]-3-(1-methypyrazol-3-yl)urea] |
| 8.20 | Cc1cc(NC(=O)Nc2ccc(-c3nc(N4CCOC[C@@H]4C)cc(C4(S(=O)(=O)c5ccccc5)CC4)n3)cc2)no1 [Example 36dw, 3-[4-[4-[1-(benzenesulfonyl)cyclopropyl]-6-[(3S)-3-methylmorpholin-4-yl]pyrimidin-2-yl]phenyl]-1-(5-methyl-1,2-oxazol-3-yl)urea] |
| 8.58 | C[C@H]1COCCN1c1cc(C2(S(=O)(=O)c3ccccc3)CC2)nc(-c2ccc(NC(=O)NCC(F)F)cc2)n1 [Example 36dx, 1-[4-[4-[1-(benzenesulfonyl)cyclopropyl]-6-[(3S)-3-methylmorpholin-4-yl]pyrimidin-2-yl]phenyl]-3-(2,2-difluoroethyl)urea] |
| 8.20 | C[C@H]1COCCN1c1cc(C2(S(=O)(=O)c3ccccc3)CC2)nc(-c2ccc(NC(=O)Nc3ncco3)cc2)n1 [Example 36dy, 1-[4-[4-[1-(benzenesulfonyl)cyclopropyl]-6-[(3S)-3-methylmorpholin-4-yl]pyrimidin-2-yl]phenyl]-3-(1,3-oxazol-2-yl)urea] |
| 8.56 | C[C@H]1COCCN1c1cc(C2(S(=O)(=O)c3ccccc3)CC2)nc(-c2ccc(NC(=O)Nc3ccon3)cc2)n1 [Example 36dz, 1-[4-[4-[1-(benzenesulfonyl)cyclopropyl]-6-[(3S)-3-methylmorpholin-4-yl]pyrimidin-2-yl]phenyl]-3-(1,2-oxazol-3-yl)urea] |
| 8.18 | C[C@H]1COCCN1c1cc(C2(S(=O)(=O)C3CC3)CCC2)nc(-c2ccc(NC(=O)NC3CC3)cc2)n1 [Example 36e, 3-cyclopropyl-1-[4-[4-(1-cyclopropylsulfonylcyclobutyl)-6-[(3S)-3-methylmorpholin-4-yl]pyrimidin-2-yl]phenyl]urea] |
| 8.05 | C[C@H]1COCCN1c1cc(C2(S(=O)(=O)c3ccccc3)CC2)nc(-c2ccc(NC(=O)NCC(F)(F)F)cc2)n1 [Example 36ea, 1-[4-[4-[1-(benzenesulfonyl)cyclopropyl]-6-[(3S)-3-methylmorpholin-4-yl]pyrimidin-2-yl]phenyl]-3-(2,2,2-trifluroethyl)urea] |
